Consider 20 compounds from ChEMBL document CHEMBL3627714, “Development of a novel class of potent and selective FIXa inhibitors” (Bioorg Med Chem Lett, 2015).

Each structure is given as a SMILES string. A value given as a limit tells only on which side of the number the result lay.

One series deals with Coagulation factor X (Homo sapiens, UniProt P00742). As to the kind of experiment: Inhibition of human coagulation factor 10a using fluorescent peptide nAcetyl-KPR-AFC as substrate.
A further series concerns the target Coagulation factor IX (Homo sapiens, UniProt P00740). The experiment in a line: Inhibition of human coagulation factor 9a using fluorescent peptide CH3SO2-D-CHG-Gly-Arg-AFC-AcoH as substrate.
The target in the next series is T1, Cytochrome P450 2C8 (Homo sapiens, UniProt P10632).
T1 sequence (P10632 whole entry): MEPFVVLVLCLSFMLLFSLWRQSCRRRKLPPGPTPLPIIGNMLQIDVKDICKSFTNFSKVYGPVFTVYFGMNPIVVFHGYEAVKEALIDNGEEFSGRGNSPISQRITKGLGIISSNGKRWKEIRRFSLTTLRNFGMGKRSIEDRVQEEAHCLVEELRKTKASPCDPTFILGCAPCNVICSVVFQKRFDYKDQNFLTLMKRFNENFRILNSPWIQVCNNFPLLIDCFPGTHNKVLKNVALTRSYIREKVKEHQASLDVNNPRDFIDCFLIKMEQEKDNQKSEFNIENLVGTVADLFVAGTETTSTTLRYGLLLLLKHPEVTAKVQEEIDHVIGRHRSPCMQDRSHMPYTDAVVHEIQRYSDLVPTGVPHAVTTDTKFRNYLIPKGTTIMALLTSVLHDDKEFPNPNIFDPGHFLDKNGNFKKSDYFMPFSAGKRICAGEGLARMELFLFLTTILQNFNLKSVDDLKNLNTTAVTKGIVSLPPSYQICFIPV
As to the kind of experiment: Inhibition of CYP2C8 (unknown origin). Format: ADME.

Series [1] addresses Voltage-gated inwardly rectifying potassium channel KCNH2 (Homo sapiens, UniProt Q12809).
Another series has as its target Cytochrome P450 3A4 (Homo sapiens, UniProt P08684). The experiment in a line: Inhibition of CYP3A4 (unknown origin). Format: ADME.
The target in the next series is Cytochrome P450 2C9 (Homo sapiens, UniProt P11712). As to the kind of experiment: Inhibition of CYP2C9 (unknown origin). Format: ADME.
Series [2] in a line: Oral bioavailability in rat at 2 mg/kg. Format: ADME, organism-based. Conditions: in vivo.
Another series concerns Rattus norvegicus. The experiment in a line: Dose normalized AUC in rat at 2 mg/kg, po. The class given is ADME, organism-based. The following applies: in vivo.
Series [3] can be described thus: Clearance in rat at 2 mg/kg, po and 0.5 mg/kg, iv. The class given is ADME, organism-based. Conditions: in vivo.
For a further series, the target named is Cytochrome P450 2D6 (Homo sapiens, UniProt P10635). The experiment in a line: Inhibition of CYP2D6 (unknown origin). Format: ADME.
A short description of series [4]: Half life in rat at 2 mg/kg, po and 0.5 mg/kg, iv. Format: ADME, organism-based. Conditions: in vivo.
Series [5] relates to Plasma. The experiment in a line: Anticoagulant activity in 1 pM recombinant coagulation factor 11a stimulated human CTI-citrated plasma assessed as inhibition of thrombin generation incubated for 5 mins by calibrated automated thrombogram analysis. The class given is functional, cell-free.
Series [6] deals with Plasma. As to the kind of experiment: Anticoagulant activity in 0.3 pM recombinant coagulation factor 11a stimulated human CTI-citrated plasma assessed as inhibition of thrombin generation incubated for 5 mins by calibrated automated thrombogram analysis. Format: functional, cell-free.
The subject of series [7] is Plasma. The experiment in a line: Anticoagulant activity in 1 pM tissue factor stimulated human CTI-citrated plasma assessed as inhibition of thrombin generation incubated for 5 mins by calibrated automated thrombogram analysis. Format: functional, cell-free.
Series [8] has as its system Plasma. The experiment in a line: Anticoagulant activity in 10 pM recombinant coagulation factor 11a stimulated human CTI-citrated plasma assessed as inhibition of thrombin generation incubated for 5 mins by calibrated automated thrombogram analysis. Format: functional, cell-free.
Series [9] concerns Plasma. As to the kind of experiment: Anticoagulant activity in 3 pM recombinant coagulation factor 11a stimulated human CTI-citrated plasma assessed as inhibition of thrombin generation incubated for 5 mins by calibrated automated thrombogram analysis. Format: functional, cell-free.
Series [10] relates to Plasma. As to the kind of experiment: Anticoagulant activity in 20 pM tissue factor stimulated human CTI-citrated plasma assessed as inhibition of thrombin generation incubated for 5 mins by calibrated automated thrombogram analysis. Format: functional, cell-free.
Series [11] concerns Plasma. As to the kind of experiment: Anticoagulant activity in 0.1 pM recombinant coagulation factor 11a stimulated human CTI-citrated plasma assessed as inhibition of thrombin generation incubated for 5 mins by calibrated automated thrombogram analysis. The class given is functional, cell-free.
For series [12], the system named is Plasma. As to the kind of experiment: Anticoagulant activity in 3 pM tissue factor stimulated human CTI-citrated plasma assessed as inhibition of thrombin generation incubated for 5 mins by calibrated automated thrombogram analysis. The class given is functional, cell-free.
The test system of series [13] is Plasma. As to the kind of experiment: Anticoagulant activity in 10 pM tissue factor stimulated human CTI-citrated plasma assessed as inhibition of thrombin generation incubated for 5 mins by calibrated automated thrombogram analysis. Format: functional, cell-free.
In series [14] the test system is Plasma. The experiment in a line: Anticoagulant activity in 0.3 pM tissue factor stimulated human CTI-citrated plasma assessed as inhibition of thrombin generation incubated for 5 mins by calibrated automated thrombogram analysis. Format: functional, cell-free.

Chain of Coagulation factor X (P00742 41-179 limits assumed): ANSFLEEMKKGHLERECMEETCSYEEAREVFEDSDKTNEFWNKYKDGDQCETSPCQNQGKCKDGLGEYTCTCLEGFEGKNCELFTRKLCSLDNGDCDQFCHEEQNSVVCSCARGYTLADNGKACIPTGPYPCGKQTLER
Chain of Coagulation factor X (P00742 235-488 limits assumed): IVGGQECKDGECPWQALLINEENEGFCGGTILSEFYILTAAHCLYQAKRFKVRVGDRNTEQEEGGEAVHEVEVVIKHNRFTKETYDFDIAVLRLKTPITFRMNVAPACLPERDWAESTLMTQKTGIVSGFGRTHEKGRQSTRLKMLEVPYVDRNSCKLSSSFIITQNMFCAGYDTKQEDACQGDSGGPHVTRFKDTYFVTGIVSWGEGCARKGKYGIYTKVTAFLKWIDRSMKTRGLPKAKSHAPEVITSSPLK
Chain of Voltage-gated inwardly rectifying potassium channel KCNH2 (Q12809 whole entry): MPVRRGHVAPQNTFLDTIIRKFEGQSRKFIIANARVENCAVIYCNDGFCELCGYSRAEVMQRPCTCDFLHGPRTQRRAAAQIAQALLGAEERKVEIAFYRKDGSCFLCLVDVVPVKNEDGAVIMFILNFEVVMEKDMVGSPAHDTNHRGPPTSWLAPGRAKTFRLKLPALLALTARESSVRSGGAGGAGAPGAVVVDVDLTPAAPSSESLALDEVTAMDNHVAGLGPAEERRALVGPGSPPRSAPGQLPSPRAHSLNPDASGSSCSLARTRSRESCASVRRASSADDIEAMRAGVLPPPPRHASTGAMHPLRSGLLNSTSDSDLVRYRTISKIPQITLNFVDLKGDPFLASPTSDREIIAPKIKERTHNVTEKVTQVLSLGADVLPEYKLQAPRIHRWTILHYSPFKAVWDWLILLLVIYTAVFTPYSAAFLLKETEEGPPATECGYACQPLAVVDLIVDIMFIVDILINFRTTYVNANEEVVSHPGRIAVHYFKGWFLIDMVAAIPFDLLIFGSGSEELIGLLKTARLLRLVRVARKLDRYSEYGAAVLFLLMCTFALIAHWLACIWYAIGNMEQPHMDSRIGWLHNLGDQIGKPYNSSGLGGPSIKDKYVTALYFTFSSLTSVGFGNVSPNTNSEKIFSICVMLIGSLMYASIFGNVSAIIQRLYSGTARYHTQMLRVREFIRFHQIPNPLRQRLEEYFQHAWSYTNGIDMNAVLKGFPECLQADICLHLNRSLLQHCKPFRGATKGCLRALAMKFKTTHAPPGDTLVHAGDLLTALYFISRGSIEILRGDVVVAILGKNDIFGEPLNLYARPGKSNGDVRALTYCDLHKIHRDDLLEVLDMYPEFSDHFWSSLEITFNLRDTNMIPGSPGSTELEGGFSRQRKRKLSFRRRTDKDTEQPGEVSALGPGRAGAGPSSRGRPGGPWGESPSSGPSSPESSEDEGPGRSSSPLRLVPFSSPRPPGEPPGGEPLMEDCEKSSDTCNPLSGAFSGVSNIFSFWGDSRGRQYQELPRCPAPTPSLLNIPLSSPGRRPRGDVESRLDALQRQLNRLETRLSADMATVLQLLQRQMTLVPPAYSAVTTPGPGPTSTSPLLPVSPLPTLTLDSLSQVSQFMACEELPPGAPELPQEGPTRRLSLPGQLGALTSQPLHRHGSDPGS
Chain of Coagulation factor IX (P00740 47-191 limits assumed): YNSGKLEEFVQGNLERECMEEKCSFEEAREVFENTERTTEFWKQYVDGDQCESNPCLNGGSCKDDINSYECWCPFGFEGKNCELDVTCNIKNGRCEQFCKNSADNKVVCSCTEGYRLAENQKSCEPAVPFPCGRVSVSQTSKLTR
Chain of Coagulation factor IX (P00740 227-461 limits assumed): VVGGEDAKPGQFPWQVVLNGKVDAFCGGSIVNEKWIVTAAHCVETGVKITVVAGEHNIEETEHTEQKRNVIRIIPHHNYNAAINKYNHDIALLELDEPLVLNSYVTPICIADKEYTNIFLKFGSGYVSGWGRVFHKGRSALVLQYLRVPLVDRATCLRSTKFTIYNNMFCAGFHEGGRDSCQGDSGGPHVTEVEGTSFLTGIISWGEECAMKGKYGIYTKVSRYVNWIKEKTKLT
Chain of Cytochrome P450 2D6 (P10635 whole entry): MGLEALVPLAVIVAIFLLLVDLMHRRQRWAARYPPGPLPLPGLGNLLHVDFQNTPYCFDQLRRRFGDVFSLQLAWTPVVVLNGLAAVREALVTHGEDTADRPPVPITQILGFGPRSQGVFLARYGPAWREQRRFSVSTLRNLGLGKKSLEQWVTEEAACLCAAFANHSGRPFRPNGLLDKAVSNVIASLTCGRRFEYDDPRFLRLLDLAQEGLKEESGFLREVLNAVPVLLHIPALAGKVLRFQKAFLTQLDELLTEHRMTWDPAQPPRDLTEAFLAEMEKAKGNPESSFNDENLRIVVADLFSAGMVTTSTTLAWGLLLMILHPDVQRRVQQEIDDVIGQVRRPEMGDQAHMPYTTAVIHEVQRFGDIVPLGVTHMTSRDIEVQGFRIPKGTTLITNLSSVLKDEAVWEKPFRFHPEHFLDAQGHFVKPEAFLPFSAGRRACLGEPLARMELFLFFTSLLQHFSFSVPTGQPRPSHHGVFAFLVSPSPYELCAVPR
Chain of Cytochrome P450 3A4 (P08684 whole entry): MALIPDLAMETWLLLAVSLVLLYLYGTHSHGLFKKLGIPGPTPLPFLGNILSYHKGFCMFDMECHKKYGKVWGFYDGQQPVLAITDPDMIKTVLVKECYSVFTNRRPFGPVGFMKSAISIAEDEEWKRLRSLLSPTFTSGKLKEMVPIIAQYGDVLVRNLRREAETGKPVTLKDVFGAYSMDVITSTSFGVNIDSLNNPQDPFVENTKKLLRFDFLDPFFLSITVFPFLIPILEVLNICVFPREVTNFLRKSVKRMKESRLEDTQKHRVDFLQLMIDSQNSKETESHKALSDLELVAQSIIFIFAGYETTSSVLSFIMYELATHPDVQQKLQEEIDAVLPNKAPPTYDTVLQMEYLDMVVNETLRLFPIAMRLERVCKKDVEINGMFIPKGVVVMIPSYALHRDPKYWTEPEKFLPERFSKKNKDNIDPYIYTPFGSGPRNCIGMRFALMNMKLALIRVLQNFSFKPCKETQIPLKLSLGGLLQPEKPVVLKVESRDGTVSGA
Chain of Cytochrome P450 2C9 (P11712 whole entry): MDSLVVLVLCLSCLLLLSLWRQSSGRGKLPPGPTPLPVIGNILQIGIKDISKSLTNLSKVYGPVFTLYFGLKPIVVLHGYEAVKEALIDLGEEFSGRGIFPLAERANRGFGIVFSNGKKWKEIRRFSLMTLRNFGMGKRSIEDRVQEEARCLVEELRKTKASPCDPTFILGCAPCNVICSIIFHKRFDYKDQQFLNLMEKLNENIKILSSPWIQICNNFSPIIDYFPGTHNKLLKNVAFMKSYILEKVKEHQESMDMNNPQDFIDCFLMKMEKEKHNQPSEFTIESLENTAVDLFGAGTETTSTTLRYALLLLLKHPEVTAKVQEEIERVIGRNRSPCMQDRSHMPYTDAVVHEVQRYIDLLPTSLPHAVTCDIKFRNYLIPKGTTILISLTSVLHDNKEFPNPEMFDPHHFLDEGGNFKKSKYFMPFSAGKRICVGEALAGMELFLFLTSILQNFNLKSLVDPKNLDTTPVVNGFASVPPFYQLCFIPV

For the compound `Cc1cc2nc([C@@H](CNC(=O)c3ccc(-n4cnnc4)cc3Cl)c3ccc(F)cc3)[nH]c2cc1C`, the values for the inhibitory constant (Ki) on Coagulation factor X and on Coagulation factor IX were 1.51 µM and 0.0084 µM, respectively.
`Cc1ncn(-c2cc(Cl)c(C(=O)NC[C@@H](c3cccc(F)c3)c3cc(=O)c4c(C)ccc(F)c4[nH]3)c(Cl)c2)n1`: the values for the Ki on Coagulation factor X and on Coagulation factor IX were > 28.9 µM and 0.0033 µM, respectively.
Taken in the same sequence, the figures for `Cc1cc2nc([C@@H](CNC(=O)c3c(C)cc(-n4cnnc4)cc3Cl)c3ccccc3)[nH]c2cc1C` were 0.195 µM and 0.008 µM.
Turning to `Cc1ncn(-c2cc(Cl)c(C(=O)NC[C@@H](c3cccc(F)c3)c3nc4c(C)cc(Cl)cc4[nH]3)c(Cl)c2)n1`, the IC50 at Cytochrome P450 2C8 is 4.04 µM; in series [1], 3.05 µM; at Cytochrome P450 3A4, > 50 µM; against Cytochrome P450 2C9 it was 22.4 µM; against Cytochrome P450 2D6 it was > 50 µM. The Ki is > 28.9 µM on Coagulation factor X and 0.0062 µM at Coagulation factor IX. Besides, the bioavailability in series [2] worked out at 57.3%. Besides, the AUC/dose in the series with Rattus norvegicus stood at 4.36 µM·h/mg/kg. The same compound registered a clearance in series [3] of 3.84 mL/min/kg. This compound also showed a half-life in series [4] of 1.66 h.
As to `COc1cc(-n2cnnc2)cc(Cl)c1C(=O)NC[C@@H](c1ccccc1)c1nc2cc(C)c(C)cc2[nH]1`, the results for the Ki at Coagulation factor X and on Coagulation factor IX were 0.245 µM and 0.0148 µM, respectively.
Regarding `Cc1cc2nc([C@@H](CNC(=O)c3ccc(-n4cnnc4)cc3Cl)c3cccnc3)[nH]c2cc1C`, the Ki at Coagulation factor X was found to be 1.6 µM; on Coagulation factor IX it was 0.0154 µM.
For `Cc1cc2nc([C@@H](CNC(=O)c3ccc(-n4cnnc4)cc3Cl)c3ccccc3F)[nH]c2cc1C`, the Ki was 0.412 µM on Coagulation factor X and 0.0193 µM at Coagulation factor IX.
Regarding `COc1ccc(-n2nc(C(N)=O)c3c2C(=O)N(c2ccc(N4CCCCC4=O)cc2)CC3)cc1` [APIXABAN], the IC50 in the series with Plasma [5] was 0.191 µM; in the series with Plasma [6], 0.116 µM; with Plasma [7] it was 0.0337 µM; in the series with Plasma [8] it was 2.41 µM; with Plasma [9] it was 0.747 µM; in the series with Plasma [10] it was 0.299 µM. Besides, the IC50 with Plasma [11] stood at 0.0513 µM; with Plasma [12], 0.0484 µM; in the series with Plasma [13] it was 0.159 µM; in the series with Plasma [14], 0.0476 µM.
On to `Cc1cc2nc([C@@H](CNC(=O)c3c(Cl)cc(-n4cnnc4)cc3C(F)(F)F)c3ccccc3)[nH]c2cc1C`, for which the Ki at Coagulation factor X was found to be 0.34 µM; on Coagulation factor IX it was 0.0218 µM.
In the case of `Cc1ncn(-c2cc(Cl)c(C(=O)NC[C@@H](c3cccc(F)c3)c3ccc4c(C)ccc(F)c4n3)c(Cl)c2)n1`, the results for the Ki on Coagulation factor X and at Coagulation factor IX were > 28.9 µM and 0.0104 µM, respectively.
With `Cc1ncn(-c2cc(Cl)c(C(=O)NC[C@@H](c3cccc(F)c3)c3nc4cc(C)c(Cl)cc4[nH]3)c(Cl)c2)n1`, the Ki on Coagulation factor X stood at 15.2 µM; on Coagulation factor IX it was 0.0136 µM.
For `Cc1ncn(-c2cc(Cl)c(C(=O)NC[C@@H](c3cccc(F)c3)c3cnc4[nH]c(C)cc4c3)c(Cl)c2)n1` the same measures were > 28.9 µM and 0.0037 µM.
In the case of `Cc1ncn(-c2cc(Cl)c(C(=O)NC[C@@H](c3cccc(F)c3)c3nc4c(F)ccc(C)c4c(=O)[nH]3)c(Cl)c2)n1`, the IC50 is 24.4 µM at Cytochrome P450 2C8; > 60 µM in series [1]; > 50 µM against Cytochrome P450 3A4; 42.8 µM against Cytochrome P450 2C9; > 50 µM at Cytochrome P450 2D6. Moreover, the Ki was > 28.9 µM on Coagulation factor X and 0.001 µM at Coagulation factor IX. Besides, the bioavailability in series [2] amounted to 14.1%. For the same compound, the AUC/dose in the series with Rattus norvegicus stood at 0.284 µM·h/mg/kg. Moreover, the clearance in series [3] was found to be 15.5 mL/min/kg. In series [4], this compound gave a half-life of 1.12 h.
In the case of `Cc1ncn(-c2cc(Cl)c(C(=O)NC[C@@H](c3cccc(F)c3)c3nc4ccc(Cl)cc4[nH]3)c(Cl)c2)n1`, the IC50 at Cytochrome P450 2C8 was 5.28 µM; at Cytochrome P450 3A4, > 50 µM; against Cytochrome P450 2C9, 19.8 µM; at Cytochrome P450 2D6 it was 30.4 µM. For the same compound, the Ki on Coagulation factor X amounted to 20.7 µM; at Coagulation factor IX, 0.0098 µM. In series [2], this compound gave a bioavailability of 48.2%. The AUC/dose in the series with Rattus norvegicus was 1.74 µM·h/mg/kg. For the same compound, the clearance in series [3] worked out at 8.77 mL/min/kg. The half-life in series [4] was 0.8 h.
For `Cc1ncn(-c2cc(Cl)c(C(=O)NC[C@@H](c3cccc(F)c3)c3ccc4[nH]c(C)nc4c3)c(Cl)c2)n1`, the IC50 is 1.57 µM against Cytochrome P450 2C8; 2.52 µM with Plasma [5]; 1.6 µM in the series with Plasma [6]; 19.9 µM in [1]; 1.16 µM with Plasma [7]; > 50 µM at Cytochrome P450 3A4. The IC50 on Cytochrome P450 2C9 is 24.9 µM; in the series with Plasma [8], 22.4 µM; in the series on Plasma [9] it was 7.16 µM; in the series with Plasma [10] it was 1.9 µM; with Plasma [11] it was 0.303 µM; in the series with Plasma [12] it was 0.953 µM. Also, the IC50 against Cytochrome P450 2D6 stood at 31.6 µM; in the series on Plasma [13], 1.85 µM; with Plasma [14], 1.64 µM. Moreover, the Ki on Coagulation factor X turned out to be 2.8 µM; on Coagulation factor IX, 0.0091 µM. The compound also came in with a bioavailability in series [2] of 11.1%. In addition, in the series with Rattus norvegicus, the AUC/dose was determined as 0.097 µM·h/mg/kg. In addition, the clearance in [3] is 36.5 mL/min/kg. The half-life in [4] was 1.24 h.
Regarding `Cc1cc2nc([C@@H](CNC(=O)c3c(F)cc(-n4cnnc4)cc3Cl)c3ccccc3)[nH]c2cc1C`, the results for the Ki on Coagulation factor X and at Coagulation factor IX were 0.544 µM and 0.0152 µM, respectively.
On to `COc1cc2nc([C@@H](CNC(=O)c3c(Cl)cc(-n4cnc(C)n4)cc3Cl)c3cccc(F)c3)[nH]c2cc1Cl`, for which the half-maximal inhibitory concentration (IC50) at Cytochrome P450 2C8 is 0.456 µM; in series [1] it was 10.9 µM; at Cytochrome P450 3A4, 33.3 µM; against Cytochrome P450 2C9, 9.09 µM; on Cytochrome P450 2D6, > 50 µM. The Ki was determined as 1.93 µM on Coagulation factor X and 0.0029 µM at Coagulation factor IX. The compound also gave a bioavailability in series [2] of 7.89%. Also, the AUC/dose in the series with Rattus norvegicus stood at 0.056 µM·h/mg/kg. Moreover, in series [3], the clearance was determined as 42.1 mL/min/kg. This compound also gave a half-life in series [4] of 1.03 h.
As for `Cc1ncn(-c2cc(Cl)c(C(=O)NC[C@@H](c3ccccc3)c3nc4cc(C)c(C)cc4[nH]3)c(Cl)c2)n1`, the inhibition constant (Ki) stood at 2.47 µM at Coagulation factor X and 0.0208 µM at Coagulation factor IX.
On to `Cc1cc2nc([C@@H](CNC(=O)c3ccc(-n4cnnc4)cc3Cl)c3cccc(F)c3)[nH]c2cc1C`, for which the results for the Ki at Coagulation factor X and on Coagulation factor IX were 1.01 µM and 0.0057 µM, respectively.
Taken in the same sequence, the figures for `Cc1cc2nc([C@@H](CNC(=O)c3c(Cl)cc(-n4cnnc4)cc3Cl)c3ccccc3)[nH]c2cc1C` were 0.105 µM and 0.0036 µM.
